Results from patent publication US20120095006A1, “TREATMENT OF PULMONARY HYPERTENSION” (Pfizer Inc., priority 1999, published 2012).

How the values were obtained:
[1] = system: hypoxic pulmonary vasoconstriction in anaesthetized Beagle dogs; assay: Hypoxic pulmonary vasoconstriction in anaesthetised dogs, intravenous administration; assay type: in vivo, dog
Method: The anaesthetized dog is the model of choice in which to study the effect of drugs, owing to the similarity between canine and human haemodynamics, and additionally, to ensure cinsistency between pharmacological and toxicological species.
Beagle dogs of either sex were anaesthetized with intravenous sodium pentobarbitone (Sagatal [trademark], 30 to 45 mg/kg) and anesthesia maintained with an infusion of Sagatal (6 mg/kg/h) into the right femoral vein. The dogs were initially intubated via the mouth, and then via a tracheotomy, and artificially respired using an Ugo Basille dog respirator. […] Respiratory gases (inspired O2 and end tidal CO2) were monitored by a Normocap 200 (trademark) respiratory gas monitor (Datex Instrumentarium Corp.). The depth of anesthesia was assessed by carefully monitoring arterial blood pressure and heart rate. […] Pulmonary artery pressure (PAP) and pulmonary artery wedge pressure were recorded from this catheter. This catheter was also connected to a cardiac index computer (Gould Instruments) and cardiac output determined by thermodilution following rapid injection of 5 ml saline at room temperature. […] Lead II ECG was recorded from 2 stainless steel needles inserted subcutaneously in the right arm and left leg. […] All data from the primary signals (PAP, Arterial blood pressure (ABP) and ECG) was recorded on a Po-ne-mah (trademark) data acquisition system. […]

[2] = system: hypoxic pulmonary vasoconstriction in anaesthetized dogs; assay: Hypoxic pulmonary vasoconstriction in anaesthetised dogs, inhaled administration; assay type: in vivo, dog; details: inhaled (nebulised), lowest of doses 30, 80, 230 and 770, hypoxic challenge, FIG. 3
Method: This separate study was performed in analogous fashion to intravenous administration, except that doses were administered into the inspiratory limb of the respiratory circuit using a Penta-sonic Nebuliser (deVilbiss). Each inhaled dose consisted of a timed nebulisation of the solution at a respiration rate of 15 breaths/min finishing 5 min before an hypoxic challenge. Sildenafil and vehicle were administered to a maximum of four dogs per group (i.e. total of eight dogs). At the end of the first vehicle experiment an additional hypoxic challenge was done following administration of an inhaled dose of sildenafil. Doses were made up by dissolving sildenafil in vehicle [sodium acetate buffer (0.038 M)] to the required concentration. Four doses of 30, 80, 230 and 770 microgrammes/weight of dog in kilogrammes were administered.

[3] = system: human patients having various causes of pulmonary hypertension; assay: Clinical study: continuous sildenafil infusion in patients with pulmonary hypertension, PVR and SVR determined; assay type: in vivo; details: infusion to plasma level 100, 300 and 500 ng/ml, FIG. 1
Method: A number of patients having various causes of pulmonary hypertension were selected. The patients were then assessed in order to establish baseline data, including haemodynamic parameters (by right heart catheterization), blood gas profile (via an arterial line and pulse oximetry). The patients were then tested with 40 ppm of nitric oxide (NO) by inhilation for 5 minutes to assess the reversibility of pulmonary hypertension. Haemodynamic parameters were reassessed within 5 minutes of NO and then further assessed 5-20 minutes later. When the pulmonary arterial pressure levels had returned to baseline (+−5%) inhalation haemodynamic parameters were assessed again and patients were continuously infused with sildenafil at rates to control the plasma level at 100, 300 and 500 nanogrammes per milliliter. A few patients received placebo instead of sildenafil in double-blind fashion. Haemodynamic parameters were recorded throughout infusion. From the data collected during the trial, the PVR and SVR were determined.

[4] = system: corpus cavernosum of the penis; details: dog model; cited from earlier work

For CCCc1nn(C)c2c(=O)[nH]c(-c3cc(S(=O)(=O)N4CCN(C)CC4)ccc3OCC)nc12 [sildenafil, 5-[2-ethoxy-5-(4-methylpiperazin-1-ylsulfonyl)phenyl]-1,6-dihydro-1-methyl-3-propylpyrazolo[4,3-d]pyrimidin-7-one], the “effect on SVR compared with effect on PVR” value ([1]; FIG. 2) was “significantly lower than on PVP”, the “dose producing maximal effect on PVR (reversing hypoxic pulmonary vasoconstriction)” value ([1]; lowest of doses 1.5, 4.5, 15 and 45, hypoxic challenge) was 1.5 microgrammes/kg and the “dose producing maximal effect on PVR” value [2] was 30 microgrammes/kg. The “effect on PVR” value [3] was “significant reduction in PVR”, the “effect on SVR compared with effect on PVR” value [3] was “substantially lower than the effect on PVR” and the “calculated intravenous dose producing half-maximal potentiation (ED50) of nerve-induced pressure rises” value [4] was 12 microgrammes/kg.
